Values of other authors as cited in patent US20180206518A1, “METHOD OF MAKING CANNABIS OIL H[…] E[…] RELATED CANNABINOID COMPOSITIONS” (priority 2016, published 2018).

Conditions: edible cannabis products, depending on liver function

CCCCCc1cc(O)c2c(c1)OC(C)(C)[C@@H]1CCC(C)=CC21 (stereo partly shown) [THC, Δ9-tetrahydrocannabinol]
THC able to be metabolized: 2-6%
